Columns and labels:
gp130 = experiment: Overexpressed gp130 protein levels in transfected Hek293 cells (Western blot); type: cell-based; details: Hek293 transfected with gp130 expression vector; 200 mM M16αα 9 h, 20 h after transfection
Method: Hek293 cells were transfected with an expression vector for gp130. Following 20 h M16αα ([…]) was added for 9 h. Western blots of cell lysates were reacted with anti gp130 antibodies and normalized by β-actin. Abbreviations: cont. (control).
In order to examine the mode of action of M16αα in reducing gp130 protein levels, Hek293 cells were transfected with an expression vector for the gp130 protein. Following 20 h after transfection, M16αα ([…]) was added for 9 h. Western blots of cells lysates were reacted with anti-gp130 antibodies and normalized by β-actin. […] This effect was clearer when smaller amounts of plasmid were used for transfection (0.2 microgram).

[1] = test system: Experimental Autoimmune Encephalomyelitis (EAE); experiment: EAE (MOG35-55) model for MS, clinical score; type: in vivo, female C57BL/6 mice; details: for day of fully established EAE: control day 24
STAT3 [2] = experiment: STAT3 phosphorylation in MM U266 cells (Western blot); type: cell-based; details: 200 μM, RPMI 1640, 10% FCS
Method: U266 cells were cultured with 200 μM M16αα for time periods as indicated, lysed, Western blotted and reacted with anti STAT3, p-STAT3 (Y705), PARP or Bcl-xL antibodies.
To examine the possibility that the inhibitory effect of M16αα, on Multiple Myeloma may be mediated by enhancement of pro apoptotic mechanism and induction of cell cycle arrest, U266 cells were cultured with 200 μM M16αα in RPMI 1640 medium with 10% FCS for time periods as indicated, lysed, Western blotted and reacted with anti STAT3, p-STAT3 (Y705), PARP or Bcl-xL and Bcl-2 as indicated.

human CRP = experiment: LPS-induced human CRP in hCRPtg mice; type: in vivo; details: 0.06% (W/W) (about 60 mg/kg body weight/day) for fourteen days, LPS 25 μg/mice last 18 h
Method: The effect of M16αα in decreasing human CRP induced by LPS injection was analyzed in hCRPtg mice treated with M16αα for 14 days and challenged with LPS.
Therefore, hCRPtg mice were treated for ten days with M16αα (80 mg/kg/d) dissolved in 1% CMC and administered by gavage. Plasma CRP was determined by ELISA at the beginning and at the end of treatment. […] The inventors further examined the effect of the MEDICA drugs on LPS-induced CRP. Therefore, CRP expression was analyzed in hCRPtg mice treated with M16αα 0.06% (W/W) (about 60 mg/kg body weight/day) for fourteen days and challenged with LPS (25 μg/mice) for the last 18 h. As illustrated by the histogram of FIG. 25, treatment with M16αα decreases LPS-induced levels of human CRP.

STAT3 [3] = experiment: IL-6-induced STAT3 phosphorylation in Hek293 kidney cells (Western blot); type: cell-based; details: 250 μM 9 h, serum free medium 0.2% Albumin, IL-6 20 ng/ml last 5.5 h
Method: Hek293 cells were incubated for 9 h with M16αα (250 μM) in serum free medium containing 0.2% Albumin. IL-6 (20 ng/ml) was added during the last 5.5 h period. Western blots of cell lysates were reacted with anti gp130 and anti P-STAT3 (Y705) antibodies and normalized by β-actin. Abbreviations: cont. (control).
The examined effect of MEDICA drugs on expression of APP, was further analyzed by analyzing the effect of M16αα on downstream elements in the signaling pathway leading to expression of APP. Signal Transducers and Activators of Transcription 3 (STAT3), is a transcription factor phosphorylated by JAK kinases in response to cytokine activation of a cell surface receptor tyrosine kinases. Cytokines that activate STAT3 include growth hormone, IL-6 family cytokines, Oncostatin, LIF, CNTF and G-CSF, Leptin and others. As illustrated by FIG. 1, upon cytokine activation, the STAT3 proteins dimerize and are localized to the nucleus where they activate transcription of APP as well as of other cytokine-responsive genes coding for cell survival, growth and proliferation. Therefore, the inventors next examined whether the effect of MEDICA drugs on the expression of APP is a result of interfering with STAT3 transcription activity or whether MEDICA drugs are involved in a more upstream element of the transduction pathway such as the gp130 receptor. […]

U266 cells = experiment: Cell cycle arrest markers in MM U266 cells (Western blot); type: cell-based; details: 200 μM, 24 h
Method: U266 cells were cultured with 200 μM M16αα in RPMI 1640 medium with 10% FCS for 24 h, lysed, Western blotted and reacted with anti Cyclin D1, p-P53 (S15) and p-Rb as indicated.

gp130 transcript = gp130 transcript levels in HepG2 cells (real time RT-PCR); type: cell-based, human; details: 200 μM up to 40 h (2, 4, 8, 24, 40 h), normalized with GAPDH
Method: As shown by FIGS. 5-7, treatment of M16αα results in reduction in the protein levels of gp130, which is the tyrosine kinase receptor upstream to STAT3 in this pathway. The inventors thus next examined whether M16αα affects gp130 at the transcription level. Therefore, HepG2 cells were incubated with M16αα (200 μM) for up to 40 h. Total RNA was prepared at 2 h, 4 h, 8 h, 24 h and 40 h, and gp130 transcription was analyzed by real time RT-PCR and normalized with GAPDH.

With `CC(C)(CCCCCCCCCCCCC(C)(C)C(=O)O)C(=O)O` [M16αα, 2,2,15,15-tetramethyl-hexadecanedioic acid] the “gp130 protein levels (overexpressed)” value (gp130) was “clear reduction”, the “average maximal clinical score” value ([1]; Preventive Group A: 30 mg/kg BW daily from three days prior to MOG challenge to day 37, control group D 4.3) was 1.3 and the “average maximal clinical score upon termination of treatment” value ([1]; Preventive Group A: after termination of treatment (vehicle day 37 to day 52), control group D 4.3) was about 2.0. The “average maximal clinical score” value ([1]; group B: 30 mg/kg BW daily from seventh day following MOG injection to day 52, control group D 4.3) was 4.3, the “day of fully established EAE” value ([1]; group B: 30 mg/kg BW daily from seventh day to day 52) was 40 days and the “day of fully established EAE” value ([1]; group C: 30 mg/kg BW daily from first day to day 52) was 40 days. For the same molecule, the “average maximal clinical score” value ([1]; group C: 30 mg/kg BW daily from first day to day 52, control group D 4.3) was 3.8, the “STAT3 phosphorylation (p-STAT3 Y705)” value (STAT3 [2]) was “clear reduction” and the “LPS-induced levels of human CRP” value (human CRP) was “decreases”. The “IL-6-induced phosphorylation of STAT3 Y705” value (STAT3 [3]) was “Inhibition”, the “Cyclin D1 expression” value (U266 cells) was “reduction” and the “phosphorylated Rb” value (U266 cells) was “reduction”. For the same molecule, the “phosphorylated p53” value (U266 cells) was “increase” and the gp130 transcript levels (gp130 transcript) was “remained unaffected”.

Reference: patent US20100113599A1, “AMPHIPATHIC CARBOXYLATES FOR THE TREATMENT OF IMMUNE-RELATED DISORDERS” (Syndromex Ltd. c/o Yissum Research Development Company, of, priority 2007, published 2010)
